Test system: A. viscosus in biofilms
Assay: Phototoxicity (bacterial killing, colony counts) of methylene blue on A. viscosus biofilms with red light, with or without a stress wave
Assay type: cell-based
Experimental: The biofilms were grown on enamel surfaces as described in Example 1. Biofilms were incubated with methylene blue for 1 or 5 minutes and exposed to stress waves (one pulse), after which they were exposed to 666 nm red light with a fluence of 15 J/cm^2 at an irradiance of 50 mW/cm^2. In control samples, biofilms were treated only with methylene blue, or were treated with methylene blue and exposed to red light, but without stress waves. An argon ion laser with an emission of 514.5. nm was used to pump a dye laser. The laser light was coupled into a 1.0 mm quartz fiber and appropriate spot sizes were created with an objective lens.
After illumination, adherent bacteria from the samples as treated above were scraped from the enamel surfaces with a sterile blade and dispersed in trypticase soy broth. Serial dilutions were prepared, and 100 μl aliquots were spread over the surfaces of blood agar plates. Survival fractions from each biofilm were calculated by counting the colonies on the plates and dividing by the number of colonies from dark controls incubated with the drug and kept at room temperature for periods equal to irradiation time. Other controls were: 1) biofilms untreated with methylene blue, light, or stress waves; 2) biofilms exposed only to a stress wave; 3) biofilms exposed to light without methylene blue; and 4) biofilms exposed to light after incubation with methylene blue.

SMILES: CN(C)c1ccc2nc3ccc(=[N+](C)C)cc-3sc2c1 [methylene blue]
- bacteria associated with biofilms killed (five-minute incubation with 50 μg/ml methylene blue, red light, no stress wave): 57%
- bacteria associated with biofilms killed (five-minute incubation with 50 μg/ml methylene blue, stress wave (one pulse) and 666 nm red light 15 J/cm^2): 99%
- bacteria associated with biofilms killed (one-minute incubation with 50 μg/ml methylene blue, red light, no stress wave): 34%
- bacteria associated with biofilms killed (one-minute incubation with 50 μg/ml methylene blue, stress wave (one pulse) and red light): 96.5%

Source: patent US7332200B1, “Permeabilizing biofilms” (The General Hospital Corporation, priority 1999, dated 2008)
